The target in assay [1] is T1, p300/β-catenin complex (Homo sapiens, UniProt Q09472).
T1 construct: endogenous in cells; host or cells: SW480
Description: Co-immunoprecipitation of β-catenin with p300 in SW480 cells. The settings on record: p300 (1-111), (1-211), (1-351), 50 μM COMPOUND 1. It counts as cell-based. As for the experimental part:
(§1) FIG. 3. COMPOUND 1 disrupts the β-catenin/CBP complex but not the p300/β-catenin complex. • A. Full-length Xenopus laevis β-catenin (1.1, 2.2, and 3.3 μg) or murine CBP (0.14, 0.28, 0.55, 1.1, and 2.2 μg) plasmids were cotransfected in SW480 cells along with the β-catenin/TCF (1.1 μg) reporter gene construct. Empty pcDNA3 vector was used to equalize the amount of DNA used in each reaction. Dual luciferase assays were performed 24 hours post COMPOUND 1 treatment. All experiments were performed in duplicate and values plotted as means +/−standard deviation. • B. COMPOUND 1 competes with β-catenin for CBP. SW480 cells were treated with 5 or 10 μM of COMPOUND 1 or control (0.5% DMSO). 24 hours post treatment, lysates were incubated with beads coated with either control the antibody, or anti-CBP, or anti-p300 antibodies. Co-immunoprecipitated proteins were subjected to gel electrophoresis and immunoblotting using anti-β-catenin antibodies. The arrows point to the immunoprecipitated β-catenin (doublets). • C. CBP (1-111) is the minimal region of interaction with β-catenin. SW480 cells transfected with a CBP deletion series were subjected to immunoprecipitation using anti-β-catenin antibodies coated on Protein A-agarose beads. The immune complexes were washed and subjected to gel electrophoresis followed by immunoblotting using anti-His antibodies. […]
T1 sequence (Q09472 1-111, one chain of several): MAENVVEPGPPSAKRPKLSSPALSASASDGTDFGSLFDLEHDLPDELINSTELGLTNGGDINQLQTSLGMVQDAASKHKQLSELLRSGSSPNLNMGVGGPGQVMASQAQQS

The target of assay [2] is T2, p300/β-catenin complex (Homo sapiens, UniProt Q09472).
T2 construct: endogenous in cells; host or cells: SW480
The assay is described as above. The settings on record: SW480 cells, 5 or 10 μM, 24 hours. It counts as cell-based. As for the experimental part:
as §1
T2 sequence (Q09472 2-2414, one chain of several): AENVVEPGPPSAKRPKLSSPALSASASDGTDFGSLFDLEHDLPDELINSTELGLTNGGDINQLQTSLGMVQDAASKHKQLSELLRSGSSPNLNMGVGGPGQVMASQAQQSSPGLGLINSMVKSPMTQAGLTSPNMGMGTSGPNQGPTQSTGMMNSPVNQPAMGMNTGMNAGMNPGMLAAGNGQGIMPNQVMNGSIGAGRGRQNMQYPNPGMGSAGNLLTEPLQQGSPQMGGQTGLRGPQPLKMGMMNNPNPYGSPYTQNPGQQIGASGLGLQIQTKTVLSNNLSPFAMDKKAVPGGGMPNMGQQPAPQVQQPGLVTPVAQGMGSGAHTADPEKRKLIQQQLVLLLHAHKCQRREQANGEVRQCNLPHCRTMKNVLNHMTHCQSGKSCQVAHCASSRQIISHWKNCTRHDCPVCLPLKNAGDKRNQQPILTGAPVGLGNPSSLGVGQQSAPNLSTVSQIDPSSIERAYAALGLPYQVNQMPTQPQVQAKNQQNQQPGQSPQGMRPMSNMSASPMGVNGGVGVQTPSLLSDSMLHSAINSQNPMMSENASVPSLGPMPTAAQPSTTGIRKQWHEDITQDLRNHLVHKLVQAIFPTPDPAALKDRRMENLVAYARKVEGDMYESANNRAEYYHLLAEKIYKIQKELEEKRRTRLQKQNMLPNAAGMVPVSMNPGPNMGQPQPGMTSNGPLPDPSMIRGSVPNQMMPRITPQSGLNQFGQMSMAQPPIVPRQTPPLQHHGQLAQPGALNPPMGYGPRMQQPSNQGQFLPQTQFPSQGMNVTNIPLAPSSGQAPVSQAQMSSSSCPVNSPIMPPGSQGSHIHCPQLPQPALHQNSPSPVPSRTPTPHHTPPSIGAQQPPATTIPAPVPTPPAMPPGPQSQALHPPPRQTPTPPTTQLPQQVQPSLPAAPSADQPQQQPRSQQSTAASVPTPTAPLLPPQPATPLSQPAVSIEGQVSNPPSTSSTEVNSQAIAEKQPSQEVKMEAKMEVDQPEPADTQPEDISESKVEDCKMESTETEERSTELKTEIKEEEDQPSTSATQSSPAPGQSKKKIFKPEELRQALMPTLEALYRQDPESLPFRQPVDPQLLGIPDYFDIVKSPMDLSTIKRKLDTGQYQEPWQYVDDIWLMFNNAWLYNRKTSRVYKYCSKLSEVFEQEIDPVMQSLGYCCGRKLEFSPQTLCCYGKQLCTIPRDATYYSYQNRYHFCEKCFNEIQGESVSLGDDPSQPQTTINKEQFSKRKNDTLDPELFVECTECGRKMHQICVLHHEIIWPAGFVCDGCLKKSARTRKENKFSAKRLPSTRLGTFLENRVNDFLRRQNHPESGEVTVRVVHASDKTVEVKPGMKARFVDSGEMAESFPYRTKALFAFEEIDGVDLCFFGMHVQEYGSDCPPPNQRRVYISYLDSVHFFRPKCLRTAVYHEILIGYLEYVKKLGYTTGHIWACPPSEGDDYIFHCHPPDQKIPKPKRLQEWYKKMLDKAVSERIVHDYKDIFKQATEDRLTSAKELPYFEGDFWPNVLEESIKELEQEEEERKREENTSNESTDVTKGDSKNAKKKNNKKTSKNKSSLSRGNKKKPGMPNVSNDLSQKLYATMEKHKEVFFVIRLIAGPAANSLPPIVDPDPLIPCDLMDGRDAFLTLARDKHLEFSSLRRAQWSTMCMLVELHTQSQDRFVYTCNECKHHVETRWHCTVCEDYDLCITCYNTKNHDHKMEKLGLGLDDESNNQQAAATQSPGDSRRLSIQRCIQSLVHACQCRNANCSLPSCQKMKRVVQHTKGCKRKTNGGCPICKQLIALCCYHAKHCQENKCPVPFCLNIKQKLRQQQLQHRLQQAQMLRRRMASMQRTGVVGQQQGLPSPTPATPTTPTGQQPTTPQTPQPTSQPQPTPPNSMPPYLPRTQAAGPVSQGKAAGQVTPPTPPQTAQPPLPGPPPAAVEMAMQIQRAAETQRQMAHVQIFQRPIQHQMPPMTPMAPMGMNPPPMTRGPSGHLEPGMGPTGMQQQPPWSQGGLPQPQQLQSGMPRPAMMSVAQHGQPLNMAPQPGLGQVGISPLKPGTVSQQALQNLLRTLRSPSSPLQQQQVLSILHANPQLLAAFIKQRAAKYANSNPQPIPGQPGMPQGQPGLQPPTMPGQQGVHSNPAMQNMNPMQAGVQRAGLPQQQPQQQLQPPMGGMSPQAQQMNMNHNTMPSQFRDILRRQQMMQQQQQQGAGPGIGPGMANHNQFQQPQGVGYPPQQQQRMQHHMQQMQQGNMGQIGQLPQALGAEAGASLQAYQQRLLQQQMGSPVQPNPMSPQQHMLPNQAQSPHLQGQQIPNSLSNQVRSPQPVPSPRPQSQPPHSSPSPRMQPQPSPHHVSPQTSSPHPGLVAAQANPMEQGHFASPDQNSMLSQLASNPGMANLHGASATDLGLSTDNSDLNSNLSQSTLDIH

The next assay concerns the target T3, CBP (1-111) (Mus musculus, UniProt P45481).
T3 construct: 6xHis (C); HSV tag (C); expressed in transfected cells
Description: Pull-down of CBP deletion constructs on COMPOUND 2 coated beads, competition with excess COMPOUND 1. It counts as binding. The note with it: CBP (1-111), (1-211), (1-351) in SW480 lysates, 150 μM COMPOUND 1.

T3 sequence (P45481 1-110): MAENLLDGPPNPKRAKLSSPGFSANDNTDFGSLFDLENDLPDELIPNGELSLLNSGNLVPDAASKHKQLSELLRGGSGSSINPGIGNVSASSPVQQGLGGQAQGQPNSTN

In the case of `O=C1C(Cc2ccc(O)cc2)N2C(=O)CCN(C(=O)NCc3ccccc3)C2CN1Cc1cccc2ccccc12` (stereo not drawn) [COMPOUND 1], at p300/β-catenin complex [1], the “p300 fragments binding to immunoprecipitated β-catenin in presence of excess COMPOUND 1” value is reported as “had no effect”. Moreover, on p300/β-catenin complex [2], the “Binding of β-catenin to p300 (immunoprecipitation)” value is “did not interfere”. Besides, the “Competition of CBP fragment binding to COMPOUND 2 beads by excess COMPOUND 1” value on CBP (1-111) is on record as “strongly competed away”.
